Patent US20150175545A1, “Preparation Method of Fluoro-Substituted Deuterated Diphenylurea” (SUZHOU ZELGEN BIOPHARMACEUTICAL CO., LTD, priority 2012, published 2015)
Where “and” joins values, the source holds several entries; their conditions need not be identical. Equal entries are not always repeated. Where two headings read alike, the source gives them in different places.

How the values were obtained:
[1] = target: c-Kit protein tyrosine kinase (Homo sapiens, UniProt P10721); test: ELISA inhibition of c-Kit protein tyrosine kinase at the molecular level; type: biochemical; settings: for results (inhibition efficacy): c-Kit and PDGFR-β, efficacy if inhibition rate at 10^-5 mol/L greater than 50%
c-Kit protein tyrosine kinase, sequence (P10721 26-976): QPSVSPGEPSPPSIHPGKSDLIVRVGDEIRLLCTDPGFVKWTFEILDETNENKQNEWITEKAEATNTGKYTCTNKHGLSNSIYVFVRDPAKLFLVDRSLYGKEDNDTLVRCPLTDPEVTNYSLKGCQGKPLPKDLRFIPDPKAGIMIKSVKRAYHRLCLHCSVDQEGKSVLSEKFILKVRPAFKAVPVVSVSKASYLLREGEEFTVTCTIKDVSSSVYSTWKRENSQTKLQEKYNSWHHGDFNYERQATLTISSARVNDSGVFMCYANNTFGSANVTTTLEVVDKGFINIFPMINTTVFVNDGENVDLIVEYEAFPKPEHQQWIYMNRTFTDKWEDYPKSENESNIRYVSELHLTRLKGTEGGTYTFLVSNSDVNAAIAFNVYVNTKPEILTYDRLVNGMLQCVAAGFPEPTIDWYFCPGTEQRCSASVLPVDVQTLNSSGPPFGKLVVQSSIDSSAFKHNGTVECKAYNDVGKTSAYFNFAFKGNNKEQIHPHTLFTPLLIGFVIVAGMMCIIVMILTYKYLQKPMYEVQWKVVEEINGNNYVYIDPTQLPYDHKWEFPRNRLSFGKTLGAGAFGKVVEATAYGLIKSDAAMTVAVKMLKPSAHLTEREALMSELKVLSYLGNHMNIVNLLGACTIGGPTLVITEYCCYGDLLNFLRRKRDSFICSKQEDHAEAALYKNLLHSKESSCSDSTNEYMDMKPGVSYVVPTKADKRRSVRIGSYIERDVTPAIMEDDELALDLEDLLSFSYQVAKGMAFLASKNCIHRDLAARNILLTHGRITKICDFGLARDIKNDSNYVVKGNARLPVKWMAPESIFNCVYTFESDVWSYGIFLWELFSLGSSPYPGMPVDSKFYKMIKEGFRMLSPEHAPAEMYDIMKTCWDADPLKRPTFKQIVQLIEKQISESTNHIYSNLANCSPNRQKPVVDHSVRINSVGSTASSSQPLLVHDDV
Procedure: (§1) The activity of diphenylurea compounds for inhibiting c-Kit, PDGFR-β protein tyrosine kinases on molecular level was tested by Enzyme-Linked Immunosorbent Assay (ELISA).
(§2) Reacting substrate Poly(Glu,Tyr)4:1 was bought from Sigma; Monoclonal antibody against tyrosine phosphate PY99 was bought from Santa Cruz; Horseradish peroxidase labeled sheep-against-rat IgG was bought from Calbiochem; ATP, DTT, OPD were bought from Amresco; microplates were bought from Corning; Su11248 was bought from Merk.
(§3) See Roskoski, R., Jr. Sunitinib: a VEGF and PDGF receptor protein kinase and angiogenesis inhibitor. Biochem Biophys Res Commun, 356: 323-328, 2007. The details comprise:
Kinase reaction substrate Poly(Glu,Tyr)4:1 was diluted to 20 μg/ml by potassium-free PBS, and the microplates were coated. Diphenylurea samples to be tested were added in the wells of the coated microplates (the samples to be tested were made from the stock solution of 10^−2 M in DMSO, and diluted to the desired concentration with reaction buffer before use. The resulted solution was added into the wells to get the final concentration of 10^−5 mol/L in 100 μL reaction system). At the same time, the positive control compound Su11248 was added to the positive control wells.
ATP solution diluted with reaction buffer (the final concentration of ATP is 5 μM) and tyrosine kinase for testing diluted with reaction buffer were added in turn. The total volume of reaction system was 100 μL. At the same time, the negative control wells and the control wells without enzyme were set up.
The reaction system was placed in a wet box and shaked for 1 h at 37° C. by shaking shielding from light. After the reaction was completed, plates were washed three times with T-PBS. Antibody PY99 was added (100 μL/well), and plates were shaked for 30 min at 37° C. After the reaction was completed, the plates were washed with three times T-PBS. Horseradish peroxidase labeled sheep-against-rat IgG was added (100 μL/well), and the plates were shaked for 30 min at 37° C. After the reaction was completed, the plates were washed with T-PBS for three times. OPD developing liquid was added (100 μL/well), and reacted for 1-10 min at room temperature shielding from light. 50 μL of 2 M H2SO4 was added to quench the reaction. A492 value was determined using wavelength-adjustable microplates reader VERSAmax.
(§4) The inhibition ratio of samples can be calculated by the following formula: […]

[2] = Pharmacokinetic evaluation of CM4306, CM4308 and CM4309 in rats (mixed solution, intragastric); type: in vivo, SD rats; settings: 4 mg/kg intragastric, mixed solution in PEG400, plasma; for MRT inf: read-out: MRT(0-∞)
Procedure: Blood samples were collected at 0.25, 0.5, 1.0, 2.0, 3.0, 5.0, 7.0, 9.0, 24, 36, 48 and 72 h after the administration.

[3] = tested on: human liver cancer cell SMMC-7721; test: Nude mice xenograft model inoculated with SMMC-7721 cells, tumor growth inhibition; type: in vivo; settings: 30 mg/kg intragastric every day for 2 weeks; for relative tumor increment rate T/C %: effective if T/C ≦40% and p<0.05
Procedure: The establishment of tumor-bearing nude mice xenograft model: SMMC-7721 cells in logarithmic growth period were cultured. After cell number was counted, the cells were suspended in 1×PBS, and the concentration of the cell suspension was adjusted to 1.5×10^7/ml. The tumor cells were inoculated (s.c.) 3×10^6/0.2 ml/mice under the right armpit of nude mice. 45 nude mice were inoculated in total. When the tumor size reached 30-130 mm^3, 34 mice were randomly divided into different groups. […] Administration of testing drugs was started. […] Observation continued upon the withdraw till the tumor volume was larger than 2000 mm^3. The weight of animals and tumor size were tested twice a week during the experiment. […] The formula for calculating the tumor volume (TV) is: TV=a×b^2/2, wherein a and b independently and respectively represent the length and the breadth of the tumor. The formula for calculating the relative tumor volume (RTV) is: RTV=Vt/V0, wherein V0 is the tumor volume at the beginning of the administration, and Vt is […] when measured. The index for evaluating the antitumor activity is relative tumor increment rate T/C (%), and the calculation formula is: T/C (%)=(TRTV/CRTV)×100%, wherein, TRTV is the RTV for the treatment group, and CRTV is the RTV for the negative control group. Evaluation standard for efficacy: it is effective if the relative tumor increment rate T/C (%) is ≦40% and p<0.05 by statistics analysis.

[4] = target: PDGFR-β protein tyrosine kinase (Homo sapiens, UniProt P09619); test: ELISA inhibition of PDGFR-β protein tyrosine kinase at the molecular level; type: biochemical; settings: 10 μM compound, ATP 5 μM, mean of duplicate experiments
PDGFR-β protein tyrosine kinase, sequence (P09619 33-1106): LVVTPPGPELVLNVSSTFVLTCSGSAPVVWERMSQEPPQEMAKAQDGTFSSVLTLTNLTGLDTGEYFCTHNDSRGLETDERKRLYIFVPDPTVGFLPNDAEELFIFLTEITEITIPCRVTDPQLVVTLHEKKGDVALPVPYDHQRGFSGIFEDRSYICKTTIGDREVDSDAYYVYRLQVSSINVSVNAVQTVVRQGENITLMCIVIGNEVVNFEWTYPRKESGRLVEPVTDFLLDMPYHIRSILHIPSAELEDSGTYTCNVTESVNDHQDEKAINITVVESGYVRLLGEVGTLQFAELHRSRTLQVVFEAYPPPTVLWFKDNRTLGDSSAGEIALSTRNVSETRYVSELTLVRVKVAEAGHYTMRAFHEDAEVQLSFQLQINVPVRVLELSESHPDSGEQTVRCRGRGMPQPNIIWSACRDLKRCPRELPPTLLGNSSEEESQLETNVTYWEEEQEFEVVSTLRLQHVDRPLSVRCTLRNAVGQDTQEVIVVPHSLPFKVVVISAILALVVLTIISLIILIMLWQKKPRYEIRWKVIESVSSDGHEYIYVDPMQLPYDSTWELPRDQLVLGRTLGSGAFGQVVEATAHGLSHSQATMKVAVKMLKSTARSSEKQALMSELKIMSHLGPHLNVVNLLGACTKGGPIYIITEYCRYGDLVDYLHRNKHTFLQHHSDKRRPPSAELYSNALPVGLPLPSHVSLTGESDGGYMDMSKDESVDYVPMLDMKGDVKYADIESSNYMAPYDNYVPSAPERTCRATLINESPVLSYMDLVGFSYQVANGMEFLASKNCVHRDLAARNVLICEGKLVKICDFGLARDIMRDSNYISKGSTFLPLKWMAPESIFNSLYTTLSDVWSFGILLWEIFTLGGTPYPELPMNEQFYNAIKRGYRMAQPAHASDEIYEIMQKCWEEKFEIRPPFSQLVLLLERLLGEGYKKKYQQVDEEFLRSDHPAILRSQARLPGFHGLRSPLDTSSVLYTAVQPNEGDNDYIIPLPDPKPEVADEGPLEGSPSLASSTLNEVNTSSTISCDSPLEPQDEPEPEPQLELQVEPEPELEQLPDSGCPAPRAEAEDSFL
Procedure: as §1, §2, §3
Kinase reaction substrate Poly(Glu,Tyr)4:1 was diluted to 20 μg/ml by potassium-free PBS, and the microplates were coated. […]
The reaction system was placed in a wet box and shaked for 1 h at 37° C. by shaking shielding from light. […] A492 value was determined using wavelength-adjustable microplates reader VERSAmax.
as §4

[5] = male, SD, rat, plasma, po, 4 mg/kg, individual rat
[6] = male, SD, rat, plasma, po, 4 mg/kg, mean value of 3 rats
[7] = male, SD, rat, plasma, po, 4 mg/kg, mean value of 3 rats, read-out: Cmax
[8] = male, SD, rat, plasma, po, 4 mg/kg, mean value of 3 rats, read-out: Tmax

Structure (SMILES)	results (inhibition efficacy) [1]	AUC(0-t) ([2]; individual rat, 4 mg/kg)	AUC(0-∞) ([2]; individual rat, 4 mg/kg)	Cmax ([2]; individual rat, 4 mg/kg)	MRT(0-∞) ([2]; individual rat, 4 mg/kg)	T1/2 ([2]; individual rat, 4 mg/kg)	Tmax ([2]; individual rat, 4 mg/kg)	AUC(0-inf) [2, 5]	half-life [2, 5]	MRT inf [2, 5]	AUC(0-inf) [2, 6]	half-life [2, 6]	Cmax [2, 7]	MRT inf [2, 6]	Tmax [2, 8]	AUC(0-t) ([2]; mean value of 3 rats)	relative tumor increment rate T/C % [3]	further results
CNC(=O)c1cc(Oc2ccc(NC(=O)Nc3ccc(Cl)c(C(F)(F)F)c3)c(F)c2)ccn1 [CM4308, 4-(4-(3-(4-chloro-3-(trifluoromethyl)phenyl]ureido)-3-fluorophenoxy)-N-methylpicolinamide]	effective	11.473 µg·h/mL and 9.327 µg·h/mL and 18.558 µg·h/mL	9.541 µg·h/mL and 18.973 µg·h/mL	0.378 µg/mL and 0.279 µg/mL and 0.817 µg/mL	24.1 h and 21.7 h	11.7 h and 11.4 h	8.0 h and 6.0 h and 1.0 h	11.6 µg·h/mL	10.1 h	21 h	13.4 µg·h/mL	11.1 h	0.491 µg/mL	22.2 h	5 h	13.119 µg·h/mL	51.6%	–
[2H]C([2H])([2H])NC(=O)c1cc(Oc2ccc(NC(=O)Nc3ccc(Cl)c(C(F)(F)F)c3)c(F)c2)ccn1 [CM4309, 4-(4-(3-(4-chloro-3-(trifluoromethyl)phenyl]ureido)-3-fluorophenoxy)-N-(methyl-d3)picolinamide]	effective	22.22 µg·h/mL and 35.592 µg·h/mL and 25.601 µg·h/mL	41.702 µg·h/mL and 28.899 µg·h/mL	0.933 µg/mL and 0.53 µg/mL	39.1 h and 36.7 h	23.4 h and 20.9 h	24.0 h and 1.0 h and 8.0 h	27.4 µg·h/mL	26.7 h	45.9 h	32.7 µg·h/mL	23.7 h	0.644 µg/mL	40.6 h	11 h	27.804 µg·h/mL	27.0% and < 40%	Cmax ([2]; male, SD, rat, plasma, po, 4 mg/kg, individual rat, read-out: Cmax): 0.47 µg/mL; effect on tumor growth (tumor volume vs control group) ([3]; p<0.01 vs control group): significant effect in inhibiting tumor growth
CNC(=O)c1cc(Oc2ccc(NC(=O)Nc3ccc(Cl)c(C(F)(F)F)c3)cc2)ccn1 [CM4306, 4-(4-(3-(4-chloro-3-(trifluoromethyl)phenyl]ureido)-phenoxy)-(N-methyl)picolinamide]	effective	23.431 µg·h/mL and 40.239 µg·h/mL and 24.571 µg·h/mL	41.544 µg·h/mL and 25.008 µg·h/mL	0.642 µg/mL and 1.568 µg/mL and 0.651 µg/mL	23.2 h and 23.9 h	–	8.0 h and 2.0 h	24.6 µg·h/mL	14.8 h	28.2 h	30.4 µg·h/mL	–	0.954 µg/mL	25.1 h	6 h	29.414 µg·h/mL	–	–
CCN(CC)CCNC(=O)c1c(C)[nH]c(/C=C2\C(=O)Nc3ccc(F)cc32)c1C [Su11248]	effective	–	–	–	–	–	–	–	–	–	–	–	–	–	–	–	–	% Inhibition ratio for inhibiting tyrosine kinase at 10 μM, c-Kit mean value ([1]; 10 μM compound, ATP 5 μM, mean of duplicate experiments): 90.2%; % Inhibition ratio for inhibiting tyrosine kinase at 10 μM, PDGFR-β mean value [4]: 93.9%
